Assay results from paper PMC11987180 (Biology Direct, 2025).

Legend:
[1] = target: T1, human indolethylamine N-methyltransferase (hINMT) (Homo sapiens, UniProt O95050); assay: thermal shift assay; type: binding
[2] = target: T1, human indolethylamine N-methyltransferase (hINMT); assay: quinoline-based continuous fluorometric methylation assay; type: biochemical

T1 sequence (O95050 whole entry): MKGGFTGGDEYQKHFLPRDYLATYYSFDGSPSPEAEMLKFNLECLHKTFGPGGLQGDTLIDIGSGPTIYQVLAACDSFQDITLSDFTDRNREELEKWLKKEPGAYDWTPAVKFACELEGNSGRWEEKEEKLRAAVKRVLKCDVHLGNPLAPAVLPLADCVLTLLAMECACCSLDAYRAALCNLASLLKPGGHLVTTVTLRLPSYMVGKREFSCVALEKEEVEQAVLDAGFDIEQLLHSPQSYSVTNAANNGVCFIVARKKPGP

Row | SMILES | Kd [1] [µM] | IC50 [2] [µM]
1 | C[S+](CC[C@H](N)C(=O)[O-])C[C@H]1O[C@@H](n2cnc3c(N)ncnc32)[C@H](O)[C@@H]1O (some centres unmarked) [SAM] | 55.6 ± 2.6 | –
2 | CNS(=O)(=O)CCc1ccc2[nH]cc(C3CCN(C)CC3)c2c1 [Naratriptan] | – | 188.5 ± 1.8
